These results are taken from ChEMBL document CHEMBL4800731, “Data for DCP probe JNJ-65355394” (2021).

pKi: −log10 of the molar value. Calls of active or inactive are those of the source. No cut-off for these calls is given here.

For one data set, the target named is T1, Protein O-GlcNAcase (Homo sapiens, UniProt O60502).
T1 sequence (O60502 whole entry): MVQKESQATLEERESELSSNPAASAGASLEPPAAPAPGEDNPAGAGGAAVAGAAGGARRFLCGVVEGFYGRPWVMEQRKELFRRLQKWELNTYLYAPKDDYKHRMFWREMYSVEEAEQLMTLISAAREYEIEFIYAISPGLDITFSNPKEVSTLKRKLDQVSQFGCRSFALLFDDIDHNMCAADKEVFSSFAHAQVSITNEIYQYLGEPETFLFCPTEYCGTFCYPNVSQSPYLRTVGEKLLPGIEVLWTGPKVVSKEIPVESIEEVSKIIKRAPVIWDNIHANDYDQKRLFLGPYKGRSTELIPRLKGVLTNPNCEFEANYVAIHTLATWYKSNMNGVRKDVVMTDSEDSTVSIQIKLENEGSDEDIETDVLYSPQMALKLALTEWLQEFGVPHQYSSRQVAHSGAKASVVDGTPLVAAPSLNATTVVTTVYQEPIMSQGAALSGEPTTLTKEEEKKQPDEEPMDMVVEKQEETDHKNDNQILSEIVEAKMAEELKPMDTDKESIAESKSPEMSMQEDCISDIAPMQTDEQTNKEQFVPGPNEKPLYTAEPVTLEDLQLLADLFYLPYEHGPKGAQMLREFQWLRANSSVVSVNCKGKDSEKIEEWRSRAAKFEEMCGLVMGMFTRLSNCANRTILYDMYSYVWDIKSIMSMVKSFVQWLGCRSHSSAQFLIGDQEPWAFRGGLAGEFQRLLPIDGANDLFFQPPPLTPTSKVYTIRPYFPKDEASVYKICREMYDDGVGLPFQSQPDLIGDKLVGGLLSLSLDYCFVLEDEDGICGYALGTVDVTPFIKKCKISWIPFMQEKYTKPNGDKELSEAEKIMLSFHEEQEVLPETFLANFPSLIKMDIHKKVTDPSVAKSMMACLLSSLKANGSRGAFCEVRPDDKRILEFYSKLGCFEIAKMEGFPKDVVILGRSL
Description: Cell-based OGA assay.

For data set [1], the target named is Voltage-gated inwardly rectifying potassium channel KCNH2 (Homo sapiens, UniProt Q12809). Description: hERG Cerep panel.
Chain of Voltage-gated inwardly rectifying potassium channel KCNH2 (Q12809 whole entry): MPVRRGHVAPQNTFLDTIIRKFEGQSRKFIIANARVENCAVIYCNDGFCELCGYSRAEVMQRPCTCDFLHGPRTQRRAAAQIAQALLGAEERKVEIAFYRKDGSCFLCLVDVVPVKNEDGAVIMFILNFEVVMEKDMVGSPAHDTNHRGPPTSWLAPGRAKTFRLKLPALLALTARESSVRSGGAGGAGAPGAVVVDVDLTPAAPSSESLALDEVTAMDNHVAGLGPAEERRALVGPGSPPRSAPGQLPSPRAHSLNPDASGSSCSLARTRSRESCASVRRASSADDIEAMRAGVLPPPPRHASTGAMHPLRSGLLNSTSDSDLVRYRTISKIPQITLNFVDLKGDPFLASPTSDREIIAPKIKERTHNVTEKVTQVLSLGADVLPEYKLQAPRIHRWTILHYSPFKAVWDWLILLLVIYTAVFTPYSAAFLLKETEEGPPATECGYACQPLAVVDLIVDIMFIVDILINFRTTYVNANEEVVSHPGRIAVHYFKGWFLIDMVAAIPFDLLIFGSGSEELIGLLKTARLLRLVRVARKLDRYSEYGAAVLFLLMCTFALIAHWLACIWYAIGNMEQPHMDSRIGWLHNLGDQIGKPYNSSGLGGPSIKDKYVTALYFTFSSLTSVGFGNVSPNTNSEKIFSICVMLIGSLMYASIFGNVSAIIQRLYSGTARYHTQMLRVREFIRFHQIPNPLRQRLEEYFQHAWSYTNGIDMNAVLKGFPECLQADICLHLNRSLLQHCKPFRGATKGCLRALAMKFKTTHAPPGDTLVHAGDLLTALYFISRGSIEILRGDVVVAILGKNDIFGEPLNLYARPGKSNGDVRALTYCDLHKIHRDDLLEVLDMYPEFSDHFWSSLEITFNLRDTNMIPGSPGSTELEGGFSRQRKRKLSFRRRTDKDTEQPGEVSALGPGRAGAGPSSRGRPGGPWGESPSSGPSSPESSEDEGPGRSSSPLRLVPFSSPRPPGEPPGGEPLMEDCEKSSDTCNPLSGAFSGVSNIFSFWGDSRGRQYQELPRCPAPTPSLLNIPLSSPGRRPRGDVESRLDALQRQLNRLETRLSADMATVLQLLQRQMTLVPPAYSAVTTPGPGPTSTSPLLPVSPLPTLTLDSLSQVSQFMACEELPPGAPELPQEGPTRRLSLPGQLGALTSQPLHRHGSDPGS
Data set [2] deals with Galanin receptor type 2 (Homo sapiens) (UniProt O43603). Description: hGAL2 Cerep panel.
Chain of Galanin receptor type 2 (Homo sapiens) (O43603 whole entry): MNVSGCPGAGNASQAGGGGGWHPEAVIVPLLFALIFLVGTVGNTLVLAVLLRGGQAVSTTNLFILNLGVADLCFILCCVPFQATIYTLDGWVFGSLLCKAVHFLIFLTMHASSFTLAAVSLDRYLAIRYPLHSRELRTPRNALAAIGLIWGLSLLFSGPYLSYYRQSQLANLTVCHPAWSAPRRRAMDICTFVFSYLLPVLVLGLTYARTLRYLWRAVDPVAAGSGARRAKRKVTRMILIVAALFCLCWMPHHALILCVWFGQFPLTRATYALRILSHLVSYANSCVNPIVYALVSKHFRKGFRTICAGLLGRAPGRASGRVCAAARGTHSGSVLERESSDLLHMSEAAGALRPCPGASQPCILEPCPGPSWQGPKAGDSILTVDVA
Data set [3] deals with Neuropeptide Y receptor type 1 (Homo sapiens) (UniProt P25929). Description: hNPY1 Cerep panel.
Chain of Neuropeptide Y receptor type 1 (Homo sapiens) (P25929 whole entry): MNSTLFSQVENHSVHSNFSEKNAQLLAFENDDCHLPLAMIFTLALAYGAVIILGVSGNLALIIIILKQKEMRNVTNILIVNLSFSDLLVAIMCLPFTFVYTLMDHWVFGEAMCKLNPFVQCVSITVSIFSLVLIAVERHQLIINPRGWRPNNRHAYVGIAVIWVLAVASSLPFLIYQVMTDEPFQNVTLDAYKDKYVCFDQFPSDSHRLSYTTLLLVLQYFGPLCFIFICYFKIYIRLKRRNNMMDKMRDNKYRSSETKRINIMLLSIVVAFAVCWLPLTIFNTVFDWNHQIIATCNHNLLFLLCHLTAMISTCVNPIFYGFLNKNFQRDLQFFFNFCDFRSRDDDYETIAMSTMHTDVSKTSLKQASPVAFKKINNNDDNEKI
Data set [4] has as its target Kappa-type opioid receptor (Rattus norvegicus) (UniProt P34975). Description: rOP2 Cerep panel.
Data set [5] addresses Adenosine receptor A1 (Homo sapiens) (UniProt P30542). Description: hA1 Cerep panel.
Data set [6] has as its target Adenosine receptor A2a (Homo sapiens) (UniProt P29274). Description: hA2A Cerep panel.
For data set [7], the target named is T2, Alpha-1B adrenergic receptor (Homo sapiens) (UniProt P35368).
T2 sequence (whole entry): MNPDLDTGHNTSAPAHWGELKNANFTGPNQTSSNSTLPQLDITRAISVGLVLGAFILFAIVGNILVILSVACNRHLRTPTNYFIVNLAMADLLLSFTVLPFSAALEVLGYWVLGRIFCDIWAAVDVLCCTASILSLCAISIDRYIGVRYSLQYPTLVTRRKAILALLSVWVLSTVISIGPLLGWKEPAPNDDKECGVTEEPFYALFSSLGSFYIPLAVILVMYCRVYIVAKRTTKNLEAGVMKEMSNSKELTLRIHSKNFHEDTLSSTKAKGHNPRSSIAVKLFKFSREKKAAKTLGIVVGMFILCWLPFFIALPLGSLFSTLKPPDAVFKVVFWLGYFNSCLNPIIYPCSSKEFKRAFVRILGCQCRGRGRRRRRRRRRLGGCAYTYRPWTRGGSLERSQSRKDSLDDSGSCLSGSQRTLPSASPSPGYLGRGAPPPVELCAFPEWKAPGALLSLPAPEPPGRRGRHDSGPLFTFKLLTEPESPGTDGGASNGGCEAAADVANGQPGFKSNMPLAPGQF
Description: hAb1 Cerep panel.

The species entered for data set [8] is Rattus norvegicus. Description: rBZD Cerep panel.
Data set [9] addresses T3, Muscarinic acetylcholine receptor M2 (Homo sapiens) (UniProt P08172).
T3 sequence (whole entry): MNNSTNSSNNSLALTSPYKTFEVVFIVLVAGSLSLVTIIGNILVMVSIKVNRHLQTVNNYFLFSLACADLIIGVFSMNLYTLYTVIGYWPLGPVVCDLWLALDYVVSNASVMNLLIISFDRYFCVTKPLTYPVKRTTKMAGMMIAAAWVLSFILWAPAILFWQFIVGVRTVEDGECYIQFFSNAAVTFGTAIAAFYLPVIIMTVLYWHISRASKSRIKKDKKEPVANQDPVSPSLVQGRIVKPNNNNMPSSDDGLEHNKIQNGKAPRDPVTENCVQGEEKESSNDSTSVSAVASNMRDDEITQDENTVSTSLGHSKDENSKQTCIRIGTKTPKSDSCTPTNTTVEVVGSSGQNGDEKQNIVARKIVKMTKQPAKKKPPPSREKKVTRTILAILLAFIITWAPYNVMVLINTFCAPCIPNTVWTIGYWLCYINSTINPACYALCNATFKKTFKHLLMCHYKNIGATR
Description: hM2 Cerep panel.

The target in data set [10] is Substance-K receptor (Homo sapiens) (UniProt P21452). Description: hNK2 Cerep panel.
Chain of Substance-K receptor (Homo sapiens) (P21452 whole entry): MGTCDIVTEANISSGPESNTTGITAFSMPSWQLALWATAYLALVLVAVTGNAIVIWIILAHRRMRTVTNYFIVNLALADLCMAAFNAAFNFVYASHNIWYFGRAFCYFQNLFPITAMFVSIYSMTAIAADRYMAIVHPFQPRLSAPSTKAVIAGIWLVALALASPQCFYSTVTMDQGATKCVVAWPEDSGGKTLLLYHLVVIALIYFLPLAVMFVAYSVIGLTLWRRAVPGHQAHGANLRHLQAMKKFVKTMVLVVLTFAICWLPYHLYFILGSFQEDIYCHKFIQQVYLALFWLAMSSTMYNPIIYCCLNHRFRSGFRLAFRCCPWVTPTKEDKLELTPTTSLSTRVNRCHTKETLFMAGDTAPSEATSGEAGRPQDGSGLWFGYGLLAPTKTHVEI
Data set [11] has as its target Delta-type opioid receptor (Homo sapiens) (UniProt P41143). Description: hOP1 Cerep panel.
Data set [12] concerns the target 5-hydroxytryptamine receptor 6 (Homo sapiens) (UniProt P50406). Description: h5HT6 Cerep panel.
Data set [13] is filed under the species Rattus norvegicus. Description: rSKCaCH Cerep panel.
For data set [14], the target named is T4, Sodium-dependent serotonin transporter (Homo sapiens, UniProt P31645). Description: h5HTT Cerep panel.
Data set [15] addresses T4, Sodium-dependent serotonin transporter. Description: GPCRScan assay: inhibition of SERT. Also noted: radioligand conc. used [nm] 1.5 – 2.0, parental cells stable HEK.
Target sequence in this assay (P31645 whole entry): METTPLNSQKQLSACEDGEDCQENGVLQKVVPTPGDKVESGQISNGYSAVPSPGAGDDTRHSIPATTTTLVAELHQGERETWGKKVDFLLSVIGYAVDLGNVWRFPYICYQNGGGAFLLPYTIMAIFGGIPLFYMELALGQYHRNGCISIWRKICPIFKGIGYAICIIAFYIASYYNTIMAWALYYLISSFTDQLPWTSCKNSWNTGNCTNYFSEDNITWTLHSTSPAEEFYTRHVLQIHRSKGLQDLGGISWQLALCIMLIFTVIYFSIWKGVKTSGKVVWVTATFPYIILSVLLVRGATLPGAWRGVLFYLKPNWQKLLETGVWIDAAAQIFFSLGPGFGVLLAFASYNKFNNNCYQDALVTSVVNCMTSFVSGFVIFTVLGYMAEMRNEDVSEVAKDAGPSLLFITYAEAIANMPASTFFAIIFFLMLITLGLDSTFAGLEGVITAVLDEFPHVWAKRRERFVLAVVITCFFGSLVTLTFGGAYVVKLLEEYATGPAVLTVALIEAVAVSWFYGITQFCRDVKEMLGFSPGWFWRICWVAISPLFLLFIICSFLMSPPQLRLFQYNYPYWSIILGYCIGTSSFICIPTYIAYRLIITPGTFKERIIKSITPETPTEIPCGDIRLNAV
Data set [16] has as its target Sigma intracellular receptor 2 (Homo sapiens, UniProt Q5BJF2). Description: GPCRScan assay: inhibition of Sigma 2. Further details: radioligand conc. used [nm] 5.0, parental cells HEKT.
Data set [17] has as its target D(1A) dopamine receptor (Homo sapiens) (UniProt P21728). The note with it: Compound concentration 10.0 uM.
Data set [18] addresses Histamine H4 receptor (Homo sapiens) (UniProt Q9H3N8). The settings on record: Compound concentration 10.0 uM.
For data set [19], the target named is Muscarinic acetylcholine receptor M5 (Homo sapiens) (UniProt P08912). The note with it: Compound concentration 10.0 uM.
Chain of Muscarinic acetylcholine receptor M5 (Homo sapiens) (P08912 whole entry): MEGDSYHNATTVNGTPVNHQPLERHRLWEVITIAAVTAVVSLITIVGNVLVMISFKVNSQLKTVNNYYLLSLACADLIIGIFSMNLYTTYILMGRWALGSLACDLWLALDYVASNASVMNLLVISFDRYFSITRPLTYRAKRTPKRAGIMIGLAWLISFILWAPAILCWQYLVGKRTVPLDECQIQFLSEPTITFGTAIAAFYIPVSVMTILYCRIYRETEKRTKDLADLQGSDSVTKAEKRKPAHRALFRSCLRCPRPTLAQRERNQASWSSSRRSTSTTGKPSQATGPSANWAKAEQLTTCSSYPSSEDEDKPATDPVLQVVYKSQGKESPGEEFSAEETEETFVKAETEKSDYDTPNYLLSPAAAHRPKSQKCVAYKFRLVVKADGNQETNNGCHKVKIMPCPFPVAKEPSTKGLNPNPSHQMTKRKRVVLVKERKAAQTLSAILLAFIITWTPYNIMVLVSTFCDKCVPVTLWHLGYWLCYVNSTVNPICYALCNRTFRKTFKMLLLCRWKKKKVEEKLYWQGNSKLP

Chain of Sigma intracellular receptor 2 (Q5BJF2 whole entry): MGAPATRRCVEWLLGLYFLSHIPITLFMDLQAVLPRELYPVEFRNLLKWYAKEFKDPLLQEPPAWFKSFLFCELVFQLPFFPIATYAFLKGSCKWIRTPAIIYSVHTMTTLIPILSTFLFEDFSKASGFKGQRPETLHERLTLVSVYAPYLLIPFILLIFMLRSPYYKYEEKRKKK
Chain of Adenosine receptor A1 (Homo sapiens) (P30542 whole entry): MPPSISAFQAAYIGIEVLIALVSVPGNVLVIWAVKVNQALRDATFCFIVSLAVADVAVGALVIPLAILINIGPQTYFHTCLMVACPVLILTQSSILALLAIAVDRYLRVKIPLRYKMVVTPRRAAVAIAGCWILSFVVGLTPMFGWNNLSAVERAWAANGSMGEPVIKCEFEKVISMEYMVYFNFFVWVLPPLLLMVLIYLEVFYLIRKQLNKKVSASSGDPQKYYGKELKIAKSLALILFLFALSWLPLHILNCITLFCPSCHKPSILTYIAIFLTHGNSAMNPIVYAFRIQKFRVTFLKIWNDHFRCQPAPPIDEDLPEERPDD
Chain of Histamine H4 receptor (Homo sapiens) (Q9H3N8 whole entry): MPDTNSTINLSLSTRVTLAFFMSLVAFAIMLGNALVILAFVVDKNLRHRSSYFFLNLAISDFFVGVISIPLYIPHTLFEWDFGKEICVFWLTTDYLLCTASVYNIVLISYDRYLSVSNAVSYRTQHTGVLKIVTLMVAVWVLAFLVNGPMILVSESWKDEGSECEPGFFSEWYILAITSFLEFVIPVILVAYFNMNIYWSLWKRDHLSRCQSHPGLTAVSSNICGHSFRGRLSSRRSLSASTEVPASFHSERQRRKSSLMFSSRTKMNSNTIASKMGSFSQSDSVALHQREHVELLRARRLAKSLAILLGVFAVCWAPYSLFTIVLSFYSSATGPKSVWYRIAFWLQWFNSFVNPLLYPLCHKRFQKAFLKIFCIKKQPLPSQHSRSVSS
Chain of Kappa-type opioid receptor (Rattus norvegicus) (P34975 whole entry): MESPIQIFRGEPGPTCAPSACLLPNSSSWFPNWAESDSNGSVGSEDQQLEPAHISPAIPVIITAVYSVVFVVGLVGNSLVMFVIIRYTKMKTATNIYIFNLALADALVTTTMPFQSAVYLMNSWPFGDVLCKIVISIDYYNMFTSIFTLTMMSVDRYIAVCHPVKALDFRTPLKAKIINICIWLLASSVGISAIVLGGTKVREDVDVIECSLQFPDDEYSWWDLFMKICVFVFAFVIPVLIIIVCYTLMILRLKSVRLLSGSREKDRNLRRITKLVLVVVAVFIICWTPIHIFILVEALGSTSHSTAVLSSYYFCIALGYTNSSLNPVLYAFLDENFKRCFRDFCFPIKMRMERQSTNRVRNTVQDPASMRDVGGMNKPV

Take `CC(=O)Nc1ncc(CN2CCC[C@H](Cc3cc(C)nc(C)c3)C2)s1` [JNJ-65355394]: the half-maximal inhibitory concentration (IC50) on Protein O-GlcNAcase is 3.9 nM (active). The effect in data set [1] is 10%; in data set [2], 1.4%; in data set [3], -7.35%; in data set [4], 77.8%; in data set [5], -13.2%; in [6], 4.9%. Further, the effect in data set [7] was 11.2%; in the data set filed under Rattus norvegicus [8] it was -16.6%; in data set [9], 25.4%; in data set [10], 4.5%; in data set [11] it was 20.4%; in [12], 14.2%. For the same molecule, the effect in the data set filed under Rattus norvegicus [13] was 35.4%; in data set [14] it was -7.05%.

As for `CC(=O)Nc1nc(CN2CCC[C@H](Cc3cc(C)nc(C)c3)C2)cs1` [JNJ-73924149], the pKi in data set [15] (read-out: Ki) was 5.58; in data set [16] (read-out: Ki), 5.85. Besides, the Ki in data set [15] (read-out: pKi (converted)) was 2570 nM; in [16] (read-out: pKi (converted)), 1350 nM. Besides, the inhibition in [17] was 10.7%; in data set [18] it was -0.6%; in data set [19], -6.15%.
